Columns and labels:
zif/268 = experiment: protein biosyntheses of mice brain and zif/268 expression; conditions: mouse, in vivo
BDNF = BDNF protein expression in cortical neurons and hippocampal pyramide cells; type: in vivo, rats; conditions: 8, 40 mg·kg^−1 orally daily for 10 days
[1] = tested on: Bax α high expressing PC12 cells; experiment: 6-OHDA induced apoptosis of Bax α high expressing PC12 cells (TUNEL, flowcytometry); type: cell-based; conditions: 6-OHDA 100 μM, without drug 49.9%
Excerpt: 1. The Construction of pcDNA3-bax α Plasmid and its Transfection into the PC12 Cell Line
In order to increase the expression level of the transfected gene, we first cut some of the 3′ polyA signal sequences from the Bax α cDNA and constructed the intermediate plasmid pBluescript SK-Bax α (pA). Then cut the Bax α cDNA from the intermediate plasmid, religate with the eukaryotic expression plasmid pcDNA3 and obtained the pcDNA3-Bax α recombinant plasmid. […] The recombinated Bax α has −50 bp of 5′ untranslated region(5′-UTR), 576 bp of open reading frame (ORF), and 137 bp of 3′ untranslated region (3′-UTR). The 5′ methionine translation initiation region has the Kozak consensus sequences. So this plasmid may be used to transform the Bax α gene into the mammalian cells and guarantees highly expression of Bax α by using its strong promoter.
The Lipofectamine transfecting method was used to transfect the pcDNA3-Bax α into the PC12 cell line. G-418 was used to select the resistant cell clones. […] This experiment successfully produced the Bax α high expressing PC12 cell line.
Under normal condition, the Bax α high expressing cells had the same natural apoptosis rate with the neo transfected PC12 cells.

animals = experiment: memory in water maze test; type: in vivo; conditions: 10 mg/kg
Excerpt: (§1) This invention used one trial avoidance task—step-down and step-through tests and water maze to compare the improving memorial effects of (±), (−) clausenamide. The drugs were given orally once to animals before experiment in step-down and step-through tests. The water maze test lasted for 5 days in succession. The results were expressed as latency and errors number.

calpain = calpain activity in the cortical and hippocampal tissue; type: in vivo, rats; conditions: without HFS, Nimodipine 2 nmol, mean ± S.D., n = 5
Excerpt: The rats were anaesthetized with urethane carbonate.

[2] = tested on: animals with anisodine-induced memory impairment; experiment: step-through test, memory impairment induced by anisodine; type: in vivo
Excerpt: as §1

[3] = tested on: animals with anisodine-induced memory impairment; experiment: step-down test, memory impairment induced by anisodine; type: in vivo
Excerpt: as §1

[4] = tested on: dentate gyrus granule cells; experiment: basal synaptic transmission / LTP in dentate gyrus of hippocampus in anesthetized rats (population spike amplitude); type: in vivo
Excerpt: Drugs or vehicle injection were delivered via cannula in the lateral cerebral ventricle at final concentration of 2×10^−6 mol/L. The population spike (PS) amplitude was employed as an indication of the level of excitation of the granular cell population in the dentate gyrus. To obtain this measurement, an evoked response was generated in the dentate gyrus granule cell layer by stimulating the pp at low freguency (0.033 Hz) with. single square wave pulses of 0.15 ms duration The LTP formation must accord the following creteria: The PS amplitude increased is over 30% and this high PS amplitude can persist for 40 min.

mitochondrial complex IV = mitochondrial complex IV activity in Bax α high expressing PC12 cells; type: cell-based; conditions: without drug 0.09±0.019
Excerpt: Obviously, the increased mitochondrial membrane potential is considered to be one of the antiapoptotic mechanisms of (−) Clausenamide. The increased mitochondrial complex I and complex IV activity may account for the increased mitochondrial membrane potential. The Bax α protein may induce apoptosis by affecting enzyme activities of the mitochondrial electron transfer chain. And the mitochondrial complex I and complex IV could be the targeting points of the Bax α protein.

A β 25-35 treated rats = experiment: Morris water maze, A β 25-35 induced impairment of memory; type: in vivo
Excerpt: Pathological features of Alzheimer's disease (AD) include extensive neuronal loss and the presence of numerous neurofibrillary tangles and senile plaques in the brain. The senile plaques contain amyloid fibrils derived from a 39-43 amino acids peptide referred to as β-amyloid or A β which can produce neurotoxicity. A β 25-35 poccesses the similar neurotoxicity and ability of self-aggregation as A β 1-42. Administrated aggregated A β 25-35 into rat's lateral cerebral ventricle induced memory impairment in Morris water maze.
With increasing of training days, the initial heading angle became small. On the 3th day, the initial heading angle of A β group was larger than control. […] (see Tab.3)
There are four strategies for finding platform in Morris water maze: random, circle, taxis and line. In the beginning of training the search strategies for finding target is mainly circle and random, with the increasing of training, the percentage of the two strategies declined gradually, Beginning from the 3th day, declining speed in control and (−) clausenamide group was faster than A β,(+) clausenamide and piracetam groups.

Ach, ChAT = experiment: Ach content and ChAT activity in cortex, hippocampus and striatum; conditions: in vivo
calcineurin = calcineurin activity in the cortical and hippocampal tissue; conditions: without HFS; Nimodipine 2 nmol; mean ± S.D., n = 5; control 7.8 ± 0.6
Excerpt: The rats were anaesthetized with urethane carbonate. The recording and stimulating electrodes were made from Teflon coated stainless steel wires. The bipolar stimulating electrode was sterotaxically placed in the entorhinal cortex to stimulate the perforant path, and the evoked potential was extracellular recorded from the dentate gyrus granule cell layer of ipsilateral. The population spike (PS) is served as an indication of granule cell's excitation. Long term potentiation (LTP) was induced by a 200 Hz high frequency stimulation 5×single square wave pulses of 0.2 ms duration. The drug or vehicle (DMSO) were injected into lateral cerebral ventricle in a 5 μl volume over a 5 min period via a Hamilton syringe.

[5] = anisodine + drug 10 mg/kg (Tab 7)
[6] = anisodine + drug 50 mg/kg (Tab 7)

SMILES: CN1C(=O)[C@@H](O)[C@H](c2ccccc2)[C@@H]1[C@@H](O)c1ccccc1 [(−)clausenamide, 3S, 4R, 5R, 6S (−) Levoclausenamide]
- protein biosyntheses of mice brain (zif/268): increased
- zif/268 mRNA and protein expression (zif/268): promoted
- BDNF protein expression in the cortical neurons and pyramide cells in the hippocampus (BDNF): dose-dependently increased
- apoptotic rate ([1]; 10^−5M): 9.5%
- apoptotic rate ([1]; 10^−6M): 28.1%
- apoptotic rate ([1]; 10^−7M): 36.23%
- Lalencies reaching platform, 3rd day (animals): 17.4 ± 10.9 s
- Lalencies reaching platform, 4th day (animals): 12.1 ± 6.9 s
- Lalencies reaching platform, Second day (animals): 28.7 ± 35.2 s
- calpain activity, Cortical tissue (calpain; control 1.5 ± 0.2): 2.6 ± 0.5 ΔA595nm/hr/mg protein
- calpain activity, Hippocampal tissue (calpain; control 1.7 ± 0.5): 2.7 ± 0.8 ΔA595nm/hr/mg protein
- Latencies, Step-through ([2]; 5 mg/kg oral once): 47.9 ± 90 s
- Error number, Step-through ([2]; 5 mg/kg oral once, 0.9% Nacl + anisodine 12.7 ± 4.6): 5.7 ± 4.7
- Error number, Step-through ([2]; 10 mg/kg oral once (Table 4)): 6.5 ± 5.0
- Latencies, Step-through ([2]; 10 mg/kg oral once (Table 4)): 59.4 ± 91 s
- Error number, Step-through ([2]; 50 mg/kg oral once (Table 4)): 7.1 ± 3.6
- Latencies, Step-through ([2]; 50 mg/kg oral once (Table 4)): 17.1 ± 12.4 s
- Error number [2, 5]: 6.7 ± 11.0
- Latencies [2, 5]: 138.2 ± 86.7 s
- Error number [2, 6]: 5.4 ± 4.1
- Latencies [2, 6]: 140.6 ± 96.4 s
- Error number, Step-down ([3]; 5 mg/kg oral once): 0.5 ± 0.5
- Latencies, Step-down ([3]; 5 mg/kg oral once): 186 ± 129 s
- Error number, Step-down ([3]; 10 mg/kg oral once): 0.2 ± 0.4
- Latencies, Step-down ([3]; 10 mg/kg oral once): 296 ± 97 s
- Error number, Step-down ([3]; 50 mg/kg oral once): 0.2 ± 0.4
- Latencies, Step-down ([3]; 50 mg/kg oral once): 265 ± 91 s
- increase of PS amplitude in comparison with vehicle group ([4]; 30-60 min after drug administration): 38.9-63.4%
- LTP formation (PS amplitude increase over 30% persisting 40 min) ([4]; (−) at 2×10^−6 mol/L, (±) up to 5 times that): induce LTP formation
- PS % at 15′, in comparison with before drug ([4]; icv, 2×10^−6 mol/L): 19.8%
- PS % at 15′, in comparison with control (vehicle) group ([4]; icv, 2×10^−6 mol/L): 10.0%
- PS % at 30′, in comparison with before drug ([4]; icv, 2×10^−6 mol/L): 48.5%
- PS % at 30′, in comparison with control (vehicle) group ([4]; icv, 2×10^−6 mol/L): 38.9%
- PS % at 45′, in comparison with before drug ([4]; icv, 2×10^−6 mol/L): 66.3%
- PS % at 45′, in comparison with control (vehicle) group ([4]; icv, 2×10^−6 mol/L): 52.7%
- PS % at 60′, in comparison with before drug ([4]; icv, 2×10^−6 mol/L): 81.2%
- PS % at 60′, in comparison with control (vehicle) group ([4]; icv, 2×10^−6 mol/L): 63.4%
- PS amplitude 30′ after drug ([4]; icv, 2×10^−6 mol/L, control 108 ± 7): 150 ± 11
- PS amplitude 45′ after drug ([4]; icv, 2×10^−6 mol/L, control 110 ± 10): 168 ± 25
- PS amplitude 60′ after drug ([4]; icv, 2×10^−6 mol/L, control 112 ± 7): 183 ± 30
- PS amplitude 15′ after drug ([4]; icv, final concentration 2×10^−6 mol/L, control 110 ± 9): 121 ± 9
- mitochondrial complex IV activity (mitochondrial complex IV; 10^−5M): 0.18±0.01 umol/mg pro/min
- mitochondrial complex IV activity (mitochondrial complex IV; 10^−6M): 0.15±0.02 umol/mg pro/min
- mitochondrial complex IV activity (mitochondrial complex IV; 10^−7M): 0.12±0.015 umol/mg pro/min
- spatial learning and memory impairment induced by aggregated A β 25-35 (A β 25-35 treated rats; 8,40 mg·kg^−1 daily for 8 days from the 8th day after icv 15 nmol aggregated A β 25-35): significantly ameliorated
- initial heading angle on the 3th day (in words) (A β 25-35 treated rats; (−),(+) clausenamide 8 and 40 mg.kg^−1, piracetam 400 mg·kg^−1, vs A β group): significantly reduced the angle
- latency for finding the platform, 3th to 5th day (A β 25-35 treated rats; (−),(+) clausenamide 8 and 40 mg·kg^−1, piracetam 400 mg.kg^−1, vs A β group): shorter than that of A β group
- initial heading angle, training day 1 (A β 25-35 treated rats; A β 25-35 + drug at 8 mg/kg): 89.7 ± 29.4
- initial heading angle, training day 2 (A β 25-35 treated rats; A β 25-35 + drug at 8 mg/kg): 72.3 ± 19.8
- initial heading angle, training day 3 (A β 25-35 treated rats; A β 25-35 + drug at 8 mg/kg): 46.5 ± 21.2
- initial heading angle, training day 4 (A β 25-35 treated rats; A β 25-35 + drug at 8 mg/kg): 30.4 ± 14.8
- initial heading angle, training day 5 (A β 25-35 treated rats; A β 25-35 + drug at 8 mg/kg): 17.6 ± 9.5
- initial heading angle, training day 1 (A β 25-35 treated rats; A β 25-35 + drug at 40 mg/kg): 101.5 ± 24.3
- initial heading angle, training day 2 (A β 25-35 treated rats; A β 25-35 + drug at 40 mg/kg): 83.5 ± 21.8
- initial heading angle, training day 3 (A β 25-35 treated rats; A β 25-35 + drug at 40 mg/kg): 51.2 ± 18.7
- initial heading angle, training day 4 (A β 25-35 treated rats; A β 25-35 + drug at 40 mg/kg): 28.4 ± 13.2
- initial heading angle, training day 5 (A β 25-35 treated rats; A β 25-35 + drug at 40 mg/kg): 20.7 ± 8.7
- appearance of taxis and line search strategies (A β 25-35 treated rats; from the 3th training day): increased markedly
- Ach content in cortex, hippocampus and striatum (Ach, ChAT): increased
- ChAT activity in cortex, hippocampus and striatum (Ach, ChAT): increased
- calcineurin activity, Hippocampal tissue (calcineurin): 10.4 ± 0.5 (μmol Pi)/hr/μ g protein

Source: patent US6787564B2, “Optically active clausenamides, process of the preparation thereof, pharmaceutical composition containing the same and their medical use” (Institute of Materia Medica, Chinese Academy of Medical …, priority 2002, dated 2004)
